The values below come from paper PMC11375786, “Induction of Paraptotic Cell Death in Cancer Cells by Triptycene–Peptide Hybrids and the Revised Mechanism of Paraptosis II” (Biochemistry, 2024).

Molecules are shown by their SMILES. Numbered stars: 1 amine (or outer) side, 2 acyl side, 3 side chain; on linkers, the order of the positions; unused ones are H or OH. Bridge positions count the residues as written; N and C are the ends. Square brackets hold non-standard residues; d marks the D form. Peptide text beside a SMILES is read from it. I, II: the chains in the order shown. X1 = O=C(COc1cccc2c1C1c3c(OCC(=O)NCCCCCCCCN[*:2])cccc3C2c2cccc(OCC(=O)NCCCCCCCCN[*:3])c21)NCCCCCCCCN[*:1]; Cha = N[C@@H](CC1CCCCC1)C(=O)O

Test [1] deals with Jurkat cells. Kind of test: MTT assay of Jurkat cells treated with 4 or celastrol in the presence of inhibitors. To be noted: DIDS 75 or 100 μM, RuRed 75 μM; for Inhibition of 4-induced cell death in Jurkat cells: 4 2.5 μM 1 h, Z-VAD-fmk 15 μM, necrostatin-1 30 μM, 3-MA 10 μM, CCCP 40 μM, 2-APB 50 or 100 μM; for Inhibition of celastrol-induced cell death in Jurkat cells: celastrol 5 μM 24 h, 2-APB 50 μM. Format: cell-based. As to the method: (a) Jurkat cells: Jurkat cells (2.0 × 10^5 cells/mL) in RPMI 1640 medium with 10% FBS were pretreated with the inhibitors (Z-VAD-fmk (final concentration = 15 μM), necrostatin-1 (final concentration = 30 μM), 3-MA (final concentration = 10 μM), and DIDS (75 or 100 μM)) for 3 h or pretreated with other inhibitors (CCCP (40 μM), FCCP (40 μM), 2-APB (50 or 100 μM) and RuRed (75 μM)) for 1 h under 5% CO2 at 37 °C. After incubation, 4 (final concentration = 2.5 μM) was added to the cell suspension, which was then incubated for 1 h at 37 °C. To test the effect of celastrol, the cells were pretreated with the aforementioned inhibitors and then incubated with celastrol (5 μM) for 24 h. MTT reagent (5 mg/mL) in PBS (10 μL) was added to the cells. After incubation at 37 °C for 4 h, a formazan lysis solution (10% sodium dodecyl sulfate (SDS) in 0.01 N HCl) (100 μL) was added, and the resultant solution was incubated overnight under the same conditions, followed by measurement of the absorbance at 570 nm using a microplate reader (ARVO, PerkinElmer).
A general note: Formazan colour is commonly taken as a measure of viable cells.

For another test, the system named is A549 cells. In words: cells. Particulars: 1 h. As to the method:
(§1) HeLa S3 cells (human cervical carcinoma) were cultured in Minimum essential medium (MEM) containing 10% FBS, penicillin, and streptomycin. A549 cells (human lung carcinoma) and IMR90 cells (human fetal lung fibroblast) were cultured in Dulbecco’s modified Eagle’s medium (DMEM) with 10% FBS, penicillin, and streptomycin. All cells were cultured at 37 °C under a humidified atmosphere containing 5% CO2.
(§2) Jurkat, HeLa-S3, A549 cells (2.0 × 10^5 cells/mL) and IMR90 cells (1.0 × 10^5 cells/mL) were incubated in the presence of 3–7 for 1 h, and etoposide, cisplatin and celastrol for 24 h (50 μL) in cell culture medium under CO2 at 37 °C in 96-well plates (BD Falcon). MTT reagent (5 mg/mL) in PBS (10 μL) was then added to the cells. After incubation at 37 °C for 4 h, a formazan lysis solution (10% sodium dodecyl sulfate (SDS) in 0.01 N HCl) (100 μL) was added and the resultant solution was incubated overnight under the same conditions, which was followed by measurement of the absorbance at 570 nm using a microplate reader (ARVO, PerkinElmer).

Test [2] concerns Jurkat cells. Kind of test: cells. To be noted: 1 h. As to the method: as §1, §2
Another test has as its system IMR90 cells. In words: cells. To be noted: 1 h. As to the method:
as §1, §2

The subject of a further test is HeLa-S3 cells. Kind of test: cells. Particulars: 1 h. As to the method: as §1, §2

On to `NCCOB(c1ccccc1)c1ccccc1` [2-APB], for which, in the test with Jurkat cells [1], the “Inhibition of 4-induced cell death in Jurkat cells” value is given as “rather weak” and the “Inhibition of celastrol-induced cell death in Jurkat cells” value was “did not significantly stop cell death”.

As a reminder, the EC50 is the concentration at which the effect is half-maximal. Low readings indicate a more potent agent, high ones a less potent agent. Regarding `NCCCC[C@H](NC(=O)[C@H](CCCCN)NC(=O)[C@@H](N)CCCCN)C(=O)N[C@@H](CC1CCCCC1)C(=O)NCC(=O)O` [KKKChaG, H2N-KKKChaG] (H-KKK[Cha]G-OH; C-terminus assumed), the EC50 with A549 cells, in the test with Jurkat cells [2], in the test with IMR90 cells and with HeLa-S3 cells was more than 25 µM throughout.

As to `N.N.N.N.N.N.N.N.N.N.N.N.N.N.[Cl-].[Cl-].[Cl-].[Cl-].[Cl-].[Cl-].[O-2].[O-2].[Ru+3].[Ru+3].[Ru+4]` [RuRed, Ruthenium Red], in the test with Jurkat cells [1], the “Inhibition of 4-induced cell death in Jurkat cells” value is listed as “rather weak” and the “Inhibition of celastrol-induced cell death in Jurkat cells” value is listed as “did not significantly stop cell death”.

As for `NCCCC[C@H](NC(=O)[C@H](CCCCN)NC(=O)[C@@H](N)CCCCN)C(=O)NCC(=O)NCC(=O)NCCCCCCCCNC(=O)COc1cccc2c1C1c3c(OCC(=O)NCCCCCCCCNC(=O)CNC(=O)CNC(=O)[C@H](CCCCN)NC(=O)[C@H](CCCCN)NC(=O)[C@@H](N)CCCCN)cccc3C2c2cccc(OCC(=O)NCCCCCCCCNC(=O)CNC(=O)CNC(=O)[C@H](CCCCN)NC(=O)[C@H](CCCCN)NC(=O)[C@@H](N)CCCCN)c21` [compound 3], the EC50 in the test with A549 cells was 8.6 ± 1.8 µM; in the test on Jurkat cells [2] it was 2.2 ± 0.5 µM; in the test with IMR90 cells it was more than 25 µM; in the test on HeLa-S3 cells, 5.3 ± 0.5 µM.

For `NCCCC[C@H](NC(=O)[C@H](CC1CCCCC1)NC(=O)[C@H](CCCCN)NC(=O)[C@H](CC1CCCCC1)NC(=O)[C@@H](N)CCCCN)C(=O)NCC(=O)NCCCCCCCCNC(=O)COc1cccc2c1C1c3c(OCC(=O)NCCCCCCCCNC(=O)CNC(=O)[C@H](CCCCN)NC(=O)[C@H](CC4CCCCC4)NC(=O)[C@H](CCCCN)NC(=O)[C@H](CC4CCCCC4)NC(=O)[C@@H](N)CCCCN)cccc3C2c2cccc(OCC(=O)NCCCCCCCCNC(=O)CNC(=O)[C@H](CCCCN)NC(=O)[C@H](CC3CCCCC3)NC(=O)[C@H](CCCCN)NC(=O)[C@H](CC3CCCCC3)NC(=O)[C@@H](N)CCCCN)c21` [compound 6] (I: H-K[Cha]K[Cha]KG / II: H-K[Cha]K[Cha]KG / III: H-K[Cha]K[Cha]KG; linker I:C-II:C-III:C via X1), the EC50 was 1.2 ± 0.1 µM in the test with Jurkat cells [2], more than 25 µM in the test with IMR90 cells and 3.3 ± 0.2 µM in the test with HeLa-S3 cells.

For `N=C(N)NCCC[C@H](NC(=O)[C@H](CC1CCCCC1)NC(=O)[C@H](CCCNC(=N)N)NC(=O)[C@H](CC1CCCCC1)NC(=O)[C@@H](N)CCCNC(=N)N)C(=O)NCC(=O)NCCCCCCCCNC(=O)COc1cccc2c1C1c3c(OCC(=O)NCCCCCCCCNC(=O)CNC(=O)[C@H](CCCNC(=N)N)NC(=O)[C@H](CC4CCCCC4)NC(=O)[C@H](CCCNC(=N)N)NC(=O)[C@H](CC4CCCCC4)NC(=O)[C@@H](N)CCCNC(=N)N)cccc3C2c2cccc(OCC(=O)NCCCCCCCCNC(=O)CNC(=O)[C@H](CCCNC(=N)N)NC(=O)[C@H](CC3CCCCC3)NC(=O)[C@H](CCCNC(=N)N)NC(=O)[C@H](CC3CCCCC3)NC(=O)[C@@H](N)CCCNC(=N)N)c21` [compound 7] (I: H-R[Cha]R[Cha]RG / II: H-R[Cha]R[Cha]RG / III: H-R[Cha]R[Cha]RG; linker I:C-II:C-III:C via X1), the EC50 in the test with A549 cells is 1.5 ± 0.1 µM; with Jurkat cells [2], 2.1 ± 0.1 µM; with IMR90 cells, more than 12.5 µM; in the test on HeLa-S3 cells, 2.7 ± 0.5 µM.
